In US20260109709A1 (MIRATI THERAPEUTICS, INC., priority 2021, published 2026):
pIC50, pKd: −log10 of the molar value. Where two headings read alike, the source gives them in different places.

Assays:
[1] = biological target: T1, PRMT5/MEP50 complex (Homo sapiens, UniProt O14744); experiment: PRMT5:MEP50 FlashPlate Assay (histone H4 peptide methylation); type: biochemical; conditions: 40 nM H4 (1-15) peptide, 1 μM SAM
T1 construct: purchased Reaction Biology Corporation
Description: The PRMT5 inhibitory activity of compounds of the present invention was determined using a PRMT5: MEP50 FlashPlate Assay and a PRMT5: MEP50 HotSpot Assay (Reaction Biology Corporation).
The assay uses purified human, PRMT5 enzyme to convert S-adenosyl-L-[methyl-3H]methionine plus histone H4 L-arginine to S-adenosyl-L-homocysteine plus histone H4 [methyl-3H]-L-arginine. The assay was carried out using Streptavidin-coated FlashPlates (Perkin Elmer), which contained a scintillant embedded in the plastic of the plate. The histone H4 peptide substrate was conjugated with biotin, which binds to the streptavidin-coated well of the plate, placing the H4 peptide in close proximity to the side well and the scintillant. The transfer of the tritiated methyl group from S-adenosyl-L-[methyl-3H]methionine to the bound histone H4 peptide generated a radiolabeled histone H4, which was quantitated by measuring in a scintillation counter to determine the activity of PRMT5 enzyme in the presence and absence of compound. […] Briefly, compounds of the present invention were solubilized in 100% DMSO at a highest concentration of 10 mM. […] Control samples lacking compound, PRMT5/MEP50 complex or various reaction components also were prepared and processed in parallel with compound test samples. SAH was used as a positive control for assay validation. To measure PRMT5 inhibitory activity, 3 nM PRMT5/MEP50 complex (Reaction Biology Corporation) was preincubated with test compound in assay buffer containing 40 nM histone H4 peptide (amino acids 1-15)-Biotin conjugate for 20 min at room temperature. The enzymatic reaction was initiated by adding 1 μM tritiated S-adenosyl methionine (final concentration) and the reaction is allowed to proceed for 20 min. The reaction was stopped and the amount of bound, tritiated H4 peptide in each sample was determined using a scintillation counter.

[2] = biological target: T2, PRMT5-MEP50 (Homo sapiens, UniProt O14744); experiment: SPR binding assay (PRMT5.MTA and PRMT5·SAM surfaces); conditions: steady-state fit
T2 construct: biotin (in vivo biotinylated)
T2 sequence (O14744 whole entry): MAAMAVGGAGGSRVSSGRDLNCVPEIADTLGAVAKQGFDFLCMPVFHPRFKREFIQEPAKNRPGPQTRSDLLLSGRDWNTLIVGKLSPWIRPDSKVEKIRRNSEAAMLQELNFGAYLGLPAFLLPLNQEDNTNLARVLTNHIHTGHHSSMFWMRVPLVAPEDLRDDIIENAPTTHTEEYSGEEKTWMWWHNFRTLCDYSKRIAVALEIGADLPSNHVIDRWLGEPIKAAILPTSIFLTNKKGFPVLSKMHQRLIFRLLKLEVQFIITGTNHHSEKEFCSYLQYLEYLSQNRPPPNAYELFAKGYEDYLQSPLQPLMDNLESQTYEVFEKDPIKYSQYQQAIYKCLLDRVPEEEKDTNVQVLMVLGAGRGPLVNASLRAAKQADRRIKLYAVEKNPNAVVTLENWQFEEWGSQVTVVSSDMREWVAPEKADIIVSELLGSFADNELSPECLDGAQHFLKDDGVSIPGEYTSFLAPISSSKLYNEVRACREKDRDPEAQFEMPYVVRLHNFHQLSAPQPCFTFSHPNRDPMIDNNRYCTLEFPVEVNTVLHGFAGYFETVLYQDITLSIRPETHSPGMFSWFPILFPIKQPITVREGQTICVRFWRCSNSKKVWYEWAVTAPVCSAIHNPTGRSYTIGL
T2 sequence (Q9BQA1 whole entry partner): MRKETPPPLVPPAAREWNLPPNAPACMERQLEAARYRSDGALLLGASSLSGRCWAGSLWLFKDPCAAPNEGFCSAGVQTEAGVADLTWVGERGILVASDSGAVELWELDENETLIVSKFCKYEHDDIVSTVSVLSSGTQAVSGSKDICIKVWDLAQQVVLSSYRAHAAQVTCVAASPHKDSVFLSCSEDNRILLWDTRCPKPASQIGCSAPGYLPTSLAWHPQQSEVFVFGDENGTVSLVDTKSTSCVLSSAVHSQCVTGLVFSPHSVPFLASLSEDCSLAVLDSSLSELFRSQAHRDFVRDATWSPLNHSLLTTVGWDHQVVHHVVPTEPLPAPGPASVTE
Description: In vivo biotinylated PRMT5-MEP50 was diluted to […] in 25 mM Bicine pH 7.6, 100 mM NaCl, 1 mM TCEP, and 0.05% Tween-20 and injected at 5 μl/min flow rate into flow cell 2 (FC2) of a Series S Sensor Chip SA (Cytiva) in a Biacore T200 or in a Biacore 8K plus (Cytiva). SPR screening was performed in MTA running buffer (25 mM Bicine pH 7.6, 100 mM NaCl, 1 mM TCEP, 20 µM MTA, 0.05% Tween-20 and 2% DMSO). The biotinylated PRMT5-MEP50 surface was equilibrated with MTA running buffer for 12 hours prior to the start. […] Subsequently, compound titration was repeated in SAM-running buffer (25 mM Bicine pH 7.6, 100 mM NaCl, 1 mM TCEP, 20 μM SAM, 0.05% Tween-20, and 2% DMSO). […] After double referencing, the steady-state response was extracted for each fragment concentration and was fit to the Langmuir isotherm equation to determine the equilibrium dissociation constant (KD).

[3] = PRMT5.MTA surface, MTA running buffer (20 µM MTA), read-out: KD MTA
[4] = PRMT5·SAM surface, SAM running buffer (20 μM SAM), read-out: KD SAM

T1 sequence (O14744 2-637 limits assumed): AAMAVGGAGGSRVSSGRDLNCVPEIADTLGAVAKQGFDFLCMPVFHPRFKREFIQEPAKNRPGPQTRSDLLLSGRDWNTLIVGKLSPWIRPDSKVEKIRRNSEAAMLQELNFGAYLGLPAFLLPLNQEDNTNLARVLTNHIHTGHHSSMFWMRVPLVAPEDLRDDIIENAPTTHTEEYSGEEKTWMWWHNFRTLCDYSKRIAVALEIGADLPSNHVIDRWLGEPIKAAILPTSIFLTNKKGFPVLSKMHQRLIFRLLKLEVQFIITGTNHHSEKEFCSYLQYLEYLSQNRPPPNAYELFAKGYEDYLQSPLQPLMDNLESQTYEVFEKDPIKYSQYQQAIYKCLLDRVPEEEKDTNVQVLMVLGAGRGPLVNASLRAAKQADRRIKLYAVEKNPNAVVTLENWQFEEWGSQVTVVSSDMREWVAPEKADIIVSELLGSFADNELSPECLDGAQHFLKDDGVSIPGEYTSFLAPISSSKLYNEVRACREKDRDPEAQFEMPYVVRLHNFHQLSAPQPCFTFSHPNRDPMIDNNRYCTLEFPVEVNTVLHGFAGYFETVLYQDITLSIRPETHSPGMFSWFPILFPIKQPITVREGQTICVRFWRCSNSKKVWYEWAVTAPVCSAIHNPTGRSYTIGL
T1 sequence (Q9BQA1 2-342 partner limits assumed): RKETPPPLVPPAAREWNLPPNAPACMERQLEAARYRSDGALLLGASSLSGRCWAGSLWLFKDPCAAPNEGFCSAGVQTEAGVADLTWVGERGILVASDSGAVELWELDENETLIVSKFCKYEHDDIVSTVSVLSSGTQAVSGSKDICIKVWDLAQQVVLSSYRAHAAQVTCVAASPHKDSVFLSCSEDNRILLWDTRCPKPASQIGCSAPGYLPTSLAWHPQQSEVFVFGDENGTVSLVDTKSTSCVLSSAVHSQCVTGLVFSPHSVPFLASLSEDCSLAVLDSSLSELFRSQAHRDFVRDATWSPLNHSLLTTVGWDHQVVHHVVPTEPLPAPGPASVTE

pIC50 ([1]; IC50 + 2 μM MTA, plus 2 μM MTA)	pIC50 ([1]; absence of MTA, read-out: IC50)	pKd [2, 3]	pKd [2, 4]	Structure (SMILES)
< 3.52	< 3.52	5.94	5.56	Cn1nc(-c2cc(C#N)c3c(c2)nc(N)n3C)c2cnccc21 [Example 3-5, 2-amino-3-methyl-6-(1-methylpyrazolo[4,3-c]pyridin-3-yl)benzimidazole-4-carbonitrile]
< 3.52		5.61	4.71	Cc1ncc(CNc2cccc3c2nc(N)n3C)n1-c1ccccc1 [Example 1-12, 1-methyl-N4-((2-methyl-1-phenyl-1H-imidazol-5-yl)methyl)-1H-benzo[d]imidazole-2,4-diamine]
